Experimental data: PubChem BioAssay (NCI)
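Cells were grown in 96-well plates and exposed to each compound for 48 hours at five concentrations; endpoints were interpolated linearly between bracketing concentrations, or set to the highest concentration if not reached. TGI is the concentration that stops growth completely.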

How the values were obtained:
Assay in all cases: NCI anticancer screen, dose series, 48 h
[1] = tested on: 786-0 renal
[2] = tested on: A549 NSCLC
[3] = tested on: ACHN renal
[4] = tested on: BT-549 breast
[5] = tested on: CAKI-1 renal
[6] = tested on: CCRF-CEM leukemia
[7] = tested on: COLO 205 colon
[8] = tested on: DU-145 prostate
[9] = tested on: EKVX NSCLC
[10] = tested on: HCC-2998 colon
[11] = tested on: HCT-116 colon
[12] = tested on: HCT-15 colon
[13] = tested on: HL-60(TB) leukemia
[14] = tested on: HOP-62 NSCLC
[15] = tested on: HS 578T breast
[16] = tested on: HT29 colon
[17] = tested on: IGROV1 ovarian
[18] = tested on: K-562 leukemia
[19] = tested on: KM12 colon
[20] = tested on: LOX IMVI melanoma
[21] = tested on: M14 melanoma
[22] = tested on: MALME-3M melanoma
[23] = tested on: MCF7 breast
[24] = tested on: MDA-MB-231 breast
[25] = tested on: MDA-MB-435
[26] = tested on: MDA-N
[27] = tested on: MOLT-4 leukemia
[28] = tested on: NCI-H226 lung
[29] = tested on: NCI-H23 lung
[30] = tested on: NCI-H522 lung
[31] = tested on: NCI/ADR-RES ovarian
[32] = tested on: OVCAR-3 ovarian
[33] = tested on: OVCAR-5 ovarian
[34] = tested on: OVCAR-8 ovarian
[35] = tested on: PC-3 prostate
[36] = tested on: RPMI-8226 leukemia
[37] = tested on: RXF 393 renal
[38] = tested on: SF-268 CNS
[39] = tested on: SF-295 CNS
[40] = tested on: SK-MEL-2 melanoma
[41] = tested on: SK-MEL-28 melanoma
[42] = tested on: SK-MEL-5 melanoma
[43] = tested on: SK-OV-3 ovarian
[44] = tested on: SN12C renal
[45] = tested on: SNB-19 CNS
[46] = tested on: SNB-75 CNS
[47] = tested on: SR leukemia
[48] = tested on: SW-620 colon
[49] = tested on: T-47D breast
[50] = tested on: TK-10 renal
[51] = tested on: U251 CNS
[52] = tested on: UACC-257 melanoma
[53] = tested on: UACC-62 melanoma
[54] = tested on: UO-31 renal
[55] = tested on: A498 renal
[56] = tested on: OVCAR-4 ovarian
[57] = tested on: SF-539 CNS
[58] = tested on: HOP-92 NSCLC
[59] = tested on: NCI-H460 lung

Question: Which TGI [1] does the source give for `COc1c2c(cc3occ(-c4ccc(CC=C(C)C)cc4)c(=O)c13)OC(C)(C)C=C2` here?
Answer: > 100 µM

Question: What about the TGI [2] of the same compound?
Answer: > 100 µM

Question: What about the TGI [3] of the same compound?
Answer: > 100 µM

Question: What about the TGI [4] of the same compound?
Answer: > 100 µM

Question: What about the TGI [5] of the same compound?
Answer: > 100 µM

Question: What about the TGI [6] of the same compound?
Answer: > 100 µM

Question: And the TGI [7]?
Answer: > 100 µM

Question: What about the TGI [8] of the same compound?
Answer: > 100 µM

Question: What about the TGI [9] of the same compound?
Answer: > 100 µM

Question: And the TGI [10]?
Answer: > 100 µM

Question: What about the TGI [11] of the same compound?
Answer: > 100 µM

Question: And the TGI [12]?
Answer: > 100 µM

Question: What about the TGI [13] of the same compound?
Answer: 46.4 µM

Question: What about the TGI [14] of the same compound?
Answer: > 100 µM

Question: And the TGI [15]?
Answer: > 100 µM

Question: And the TGI [16]?
Answer: > 100 µM

Question: What about the TGI [17] of the same compound?
Answer: > 100 µM

Question: What about the TGI [18] of the same compound?
Answer: > 100 µM

Question: What about the TGI [19] of the same compound?
Answer: > 100 µM

Question: What about the TGI [20] of the same compound?
Answer: > 100 µM

Question: And the TGI [21]?
Answer: > 100 µM

Question: And the TGI [22]?
Answer: > 100000 nM

Question: And the TGI [23]?
Answer: > 100 µM

Question: What about the TGI [24] of the same compound?
Answer: > 100 µM

Question: What about the TGI [25] of the same compound?
Answer: > 100 µM

Question: What about the TGI [26] of the same compound?
Answer: > 100 µM

Question: And the TGI [27]?
Answer: 52.1 µM

Question: What about the TGI [28] of the same compound?
Answer: > 100 µM

Question: And the TGI [29]?
Answer: > 100 µM

Question: What about the TGI [30] of the same compound?
Answer: > 100 µM

Question: And the TGI [31]?
Answer: > 100 µM

Question: What about the TGI [32] of the same compound?
Answer: > 100 µM

Question: And the TGI [33]?
Answer: > 100 µM

Question: And the TGI [34]?
Answer: > 100 µM

Question: What about the TGI [35] of the same compound?
Answer: > 100 µM

Question: What about the TGI [36] of the same compound?
Answer: 50.3 µM

Question: What about the TGI [37] of the same compound?
Answer: > 100 µM

Question: What about the TGI [38] of the same compound?
Answer: > 100 µM

Question: And the TGI [39]?
Answer: > 100 µM

Question: What about the TGI [40] of the same compound?
Answer: 62.7 µM

Question: And the TGI [41]?
Answer: > 100 µM

Question: What about the TGI [42] of the same compound?
Answer: 48.9 µM

Question: What about the TGI [43] of the same compound?
Answer: > 100 µM

Question: What about the TGI [44] of the same compound?
Answer: > 100 µM

Question: And the TGI [45]?
Answer: > 100 µM

Question: And the TGI [46]?
Answer: > 100 µM

Question: What about the TGI [47] of the same compound?
Answer: > 100 µM

Question: And the TGI [48]?
Answer: > 100 µM

Question: And the TGI [49]?
Answer: > 100 µM

Question: And the TGI [50]?
Answer: > 100 µM

Question: What about the TGI [51] of the same compound?
Answer: > 100 µM

Question: And the TGI [52]?
Answer: > 100 µM

Question: What about the TGI [53] of the same compound?
Answer: > 100 µM

Question: And the TGI [54]?
Answer: > 100 µM

Question: What does the source list for `CCNCC(O)COc1ccc2c(c1)[n+]([O-])nc(N)[n+]2[O-]` (centres undefined)?
Answer: TGI [1]: > 100 µM; TGI [55]: > 100000 nM; TGI [2]: > 100 µM; TGI [3]: > 100 µM; TGI [4]: > 100 µM; TGI [5]: > 100 µM; TGI [6]: > 100 µM; TGI [7]: > 100 µM; TGI [8]: > 100 µM; TGI [9]: > 100 µM; TGI [11]: > 100 µM; TGI [12]: > 100 µM; TGI [13]: > 100 µM; TGI [14]: > 100 µM; TGI [15]: > 100 µM; TGI [16]: > 100 µM; TGI [17]: > 100 µM; TGI [18]: > 100 µM; TGI [19]: > 100 µM; TGI [20]: 27.3 µM; TGI [21]: > 100 µM; TGI [23]: > 100 µM; TGI [24]: > 100 µM; TGI [25]: > 100 µM; TGI [26]: > 100 µM; TGI [27]: 56 µM; TGI [28]: > 100 µM; TGI [29]: > 100 µM; TGI [30]: 43.6 µM; TGI [31]: > 100 µM; TGI [32]: > 100 µM; TGI [56]: > 100 µM; TGI [33]: > 100 µM; TGI [34]: > 100 µM; TGI [35]: > 100 µM; TGI [36]: > 100 µM; TGI [38]: > 100 µM; TGI [39]: > 100 µM; TGI [57]: > 100000 nM; TGI [40]: > 100 µM; TGI [41]: > 100 µM; TGI [42]: > 100 µM; TGI [43]: 82.1 µM; TGI [44]: > 100 µM; TGI [45]: > 100 µM; TGI [46]: > 100 µM; TGI [47]: > 100 µM; TGI [48]: > 100 µM; TGI [49]: > 100 µM; TGI [50]: > 100 µM; TGI [51]: > 100 µM; TGI [52]: > 100 µM; TGI [53]: 69.8 µM; TGI [54]: > 100 µM

Question: For `CC(=O)OC1CC(OC2C(O)CC(OC3C(O)CC(OC4CCC5(C)C(CCC6C5CCC5(C)C(C7=CC(=O)OC7)C(O)CC65O)C4)OC3C)OC2C)OC(C)C1OC1OC(CO)C(O)C(O)C1O` (centres undefined), which TGI [1] is on record?
Answer: 0.943 µM

Question: What about the TGI [55] of the same compound?
Answer: 2130 nM

Question: And the TGI [2]?
Answer: 0.244 µM

Question: And the TGI [3]?
Answer: 0.942 µM

Question: What about the TGI [4] of the same compound?
Answer: 1.26 µM

Question: And the TGI [5]?
Answer: 0.461 µM

Question: What about the TGI [6] of the same compound?
Answer: > 100 µM

Question: And the TGI [7]?
Answer: 2.13 µM

Question: And the TGI [8]?
Answer: 0.684 µM

Question: And the TGI [9]?
Answer: 0.803 µM

Question: And the TGI [10]?
Answer: 4.09 µM

Question: And the TGI [11]?
Answer: 0.91 µM

Question: And the TGI [12]?
Answer: 1.16 µM

Question: What about the TGI [13] of the same compound?
Answer: 0.577 µM

Question: What about the TGI [14] of the same compound?
Answer: 0.483 µM

Question: And the TGI [58]?
Answer: 3.17 µM

Question: What about the TGI [15] of the same compound?
Answer: > 100 µM

Question: And the TGI [16]?
Answer: 1.76 µM

Question: What about the TGI [17] of the same compound?
Answer: 3.58 µM

Question: What about the TGI [18] of the same compound?
Answer: > 100 µM

Question: And the TGI [19]?
Answer: 1.94 µM

Question: And the TGI [20]?
Answer: 1.14 µM

Question: What about the TGI [21] of the same compound?
Answer: 2.31 µM

Question: And the TGI [22]?
Answer: 1850 nM

Question: And the TGI [23]?
Answer: 15.8 µM

Question: What about the TGI [24] of the same compound?
Answer: 6.42 µM

Question: What about the TGI [25] of the same compound?
Answer: 2.08 µM

Question: And the TGI [26]?
Answer: 1.77 µM

Question: And the TGI [27]?
Answer: > 100 µM

Question: And the TGI [28]?
Answer: 2.66 µM

Question: And the TGI [29]?
Answer: 0.424 µM

Question: And the TGI [59]?
Answer: 491 nM

Question: And the TGI [30]?
Answer: 1.2 µM

Question: And the TGI [31]?
Answer: 0.755 µM

Question: And the TGI [32]?
Answer: 1.24 µM

Question: What about the TGI [33] of the same compound?
Answer: 1.72 µM

Question: And the TGI [34]?
Answer: 1.56 µM

Question: And the TGI [35]?
Answer: 1.55 µM

Question: What about the TGI [36] of the same compound?
Answer: 5.7 µM

Question: And the TGI [38]?
Answer: 2.48 µM

Question: What about the TGI [39] of the same compound?
Answer: 1.43 µM

Question: What about the TGI [57] of the same compound?
Answer: 421 nM

Question: What about the TGI [40] of the same compound?
Answer: 2.16 µM

Question: What about the TGI [41] of the same compound?
Answer: 3.61 µM

Question: What about the TGI [42] of the same compound?
Answer: 1.06 µM

Question: And the TGI [43]?
Answer: 2.1 µM

Question: What about the TGI [44] of the same compound?
Answer: 1.32 µM

Question: What about the TGI [45] of the same compound?
Answer: 2.19 µM

Question: What about the TGI [46] of the same compound?
Answer: 2.97 µM

Question: What about the TGI [48] of the same compound?
Answer: 1.45 µM

Question: And the TGI [49]?
Answer: 3.32 µM

Question: And the TGI [50]?
Answer: 2.14 µM

Question: What about the TGI [51] of the same compound?
Answer: 1.45 µM

Question: What about the TGI [52] of the same compound?
Answer: 1.88 µM

Question: And the TGI [53]?
Answer: 1.98 µM

Question: What about the TGI [54] of the same compound?
Answer: 1.46 µM
